# Laboratory results published in patent publication US4695545A, “Culture and process for producing A41030 antibiotics” (Eli Lilly and Company, priority 1984, dated 1987).
# Legend:
# [1] = Electrometric titration (pKa); type: physicochemical; conditions: electrometric titration in 66% dimethylformamide in water; stated as possible
# Source text: Antibiotic A41030 factor A is a white, crystalline solid.
# Solubility in solvents = type: physicochemical; conditions: qualitative
# Source text: As many as seven antibiotic factors are recovered from the fermentation and are obtained as a mixture, the A41030 complex. It will be recognized that the ratio of the factors in the A41030 complex will vary, depending upon the fermentation conditions used. The individual factors A, B, C, D, E, F, and G are separated and isolated as individual compounds, as hereinafter described.
# Propionibacterium acnes [2] = assay: MIC against Propionibacterium acnes strains, 24-hour agar-dilution; type: cell-based
# Source text: Antibiotic A41030 factors A, B and C have been tested and found to be active against a genus of anaerobic bacteria identified as Propionibacterium acnes.
# Clostridium difficile [3] = assay: MIC anaerobic bacteria, agar-dilution; type: cell-based; conditions: Clostridium difficile 2994; agar-dilution (Table 9)
# Clostridium perfringens = type: cell-based; conditions: Clostridium perfringens 81; agar-dilution
# Clostridium septicum = assay: MIC anaerobic bacteria, agar-dilution; type: cell-based; conditions: Clostridium septicum 1128
# Peptococcus prevoti = assay: MIC anaerobic bacteria, agar-dilution; type: cell-based; conditions: Peptococcus prevoti 1281
# [4] = tested on: Peptostreptococcus anaerobius; assay: MIC anaerobic bacteria, agar-dilution; type: cell-based; conditions: Peptostreptococcus anaerobius 1428
# [5] = tested on: Peptostreptococcus intermedius; assay: MIC anaerobic bacteria, agar-dilution; type: cell-based; conditions: Peptostreptococcus intermedius 1264
# Propionibacterium acnes [6] = assay: MIC anaerobic bacteria, agar-dilution; type: cell-based; conditions: Propionibacterium acnes 79; agar-dilution (Table 9)
# Bacteroides fragilis = assay: MIC anaerobic bacteria, agar-dilution; type: cell-based
# [7] = tested on: Bacteroides thetaiotaomicron; assay: MIC anaerobic bacteria, agar-dilution; type: cell-based; conditions: Bacteroides thetaiotaomicron 1438
# [8] = tested on: Bacteroides melaninogenicus; assay: MIC anaerobic bacteria, agar-dilution; type: cell-based; conditions: Bacteroides melaninogenicus 2736
# Bacteroides vulgatis = assay: MIC anaerobic bacteria, agar-dilution; type: cell-based; conditions: Bacteroides vulgatis 1211
# Bacteroides corrodens = assay: MIC anaerobic bacteria, agar-dilution; type: cell-based; conditions: Bacteroides corrodens 1874
# Fusobacterium symbiosum = assay: MIC anaerobic bacteria, agar-dilution; type: cell-based; conditions: Fusobacterium symbiosum 1470
# [9] = tested on: Fusobacterium necrophorum; assay: MIC anaerobic bacteria, agar-dilution; type: cell-based; conditions: Fusobacterium necrophorum 6054A
# Clostridium difficile [10] = assay: MIC against Clostridium difficile strains, agar-dilution; type: cell-based
# Source text: The A41030 antibiotic factors A, B, C, D, E, F, and G, are also active against a number of strains of Clostridium difficile, as determined by the agardilution method.
# Staphylococcus aureus = assay: MIC aerobic bacteria, standard agar-dilution assay; type: cell-based; conditions: Staphylococcus aureus S13E; agar-dilution, 24 hours
# [11] = tested on: Staphylococcus epidermidis; assay: MIC aerobic bacteria, standard agar-dilution assay; type: cell-based
# Streptococcus pyogenes = assay: MIC aerobic bacteria, standard agar-dilution assay; type: cell-based; conditions: Streptococcus pyogenes C203, 24 hours
# Streptococcus pneumoniae = assay: MIC aerobic bacteria, standard agar-dilution assay; type: cell-based; conditions: Streptococcus pneumoniae Park I, 24 hours
# [12] = tested on: Streptococcus sp. Group D; assay: MIC aerobic bacteria, standard agar-dilution assay; type: cell-based
# Haemophilus influenzae = assay: MIC aerobic bacteria, standard agar-dilution assay; type: cell-based
# S. pyogenes = assay: In vivo oral activity against S. pyogenes in mice
# pseudorabies = type: cell-based
# [13] = mice
# Eubacterium aerofaciens = assay: MIC anaerobic bacteria, agar-dilution; type: cell-based; conditions: Eubacterium aerofaciens 1235
# [14] = tested on: Peptococcus asaccharolyticus; assay: MIC anaerobic bacteria, agar-dilution; type: cell-based; conditions: Peptococcus asaccharolyticus 1302
# Klebsiella pneumoniae = assay: MIC aerobic bacteria, standard agar-dilution assay; type: cell-based; conditions: Klebsiella pneumoniae X26, 24 hours
# [15] = Staphylococcus epidermidis EPI2, 24 hours
# [16] = Streptococcus sp. Group D 9960, 24 hours
# [17] = Streptococcus sp. Group D X66, 24 hours
compound,measurement,setting,value
"NC1C(=O)NC2Cc3ccc(c(Cl)c3)Oc3cc4cc(c3O)Oc3ccc(cc3Cl)C(O)C3NC(=O)C(NC(=O)C4NC(=O)C(NC2=O)c2cc(O)cc(c2)Oc2cc1ccc2O)c1cc(Cl)c(O)c(c1)-c1c(O)cc(O)cc1C(C(=O)O)NC3=O (centres unmarked) [factor A, A41030 factor A]",possibly additional pKa's,[1],> 10.5
same,solubility (solvents),Solubility in solvents,"soluble in alcohol-water mixtures, in dimethylsulfoxide, in dimethylformamide, in dimethylsulfoxide-water mixtures, in dimethylformamide-water mixtures, in dilute aqueous acid, and in dilute aqueous base"
same,MIC,Propionibacterium acnes [2]; P. acnes strain 104,0.25 µg/mL
same,MIC,Propionibacterium acnes [2]; P. acnes strain 107,0.06 µg/mL
same,MIC,Propionibacterium acnes [2]; P. acnes strain 5170,≤ 0.03 µg/mL
same,MIC,Propionibacterium acnes [2]; P. acnes strain 5176,≤ 0.03 µg/mL
same,MIC,Propionibacterium acnes [2]; P. acnes strain 5187,≤ 0.03 µg/mL
same,MIC,Propionibacterium acnes [2]; P. acnes strain 5197,≤ 0.03 µg/mL
same,MIC,Propionibacterium acnes [2]; P. acnes strain 5226,0.5 µg/mL
same,MIC,Propionibacterium acnes [2]; P. acnes strain 5227,≤ 0.03 µg/mL
same,MIC,Propionibacterium acnes [2]; P. acnes strain 5228,1.0 µg/mL
same,MIC,Propionibacterium acnes [2]; P. acnes strain 5229,0.5 µg/mL
same,MIC,Propionibacterium acnes [2]; P. acnes strain 5246,0.06 µg/mL
same,MIC,Propionibacterium acnes [2]; P. acnes strain 5292,0.06 µg/mL
same,MIC,Clostridium difficile [3],32 µg/mL
same,MIC,Clostridium perfringens,0.5 µg/mL
same,MIC,Clostridium septicum,2 µg/mL
same,MIC,Peptococcus prevoti,≤ 0.25 µg/mL
same,MIC,[4],≤ 0.25 µg/mL
same,MIC,[5],1.0 µg/mL
same,MIC,Propionibacterium acnes [6],≤ 0.25 µg/mL
same,MIC,Bacteroides fragilis; Bacteroides fragilis 1877,32 µg/mL
same,MIC,Bacteroides fragilis; Bacteroides fragilis 1936B,64 µg/mL
same,MIC,[7],64 µg/mL
same,MIC,[8],4 µg/mL
same,MIC,Bacteroides vulgatis,32 µg/mL
same,MIC,Bacteroides corrodens,64 µg/mL
same,MIC,Fusobacterium symbiosum,1.0 µg/mL
same,MIC,[9],8 µg/mL
same,MIC,Clostridium difficile [10]; Clostridium difficile 78,1.0 µg/mL
same,MIC,Clostridium difficile [10]; Clostridium difficile 107B,1.0 µg/mL
same,MIC,Clostridium difficile [10]; Clostridium difficile 111F,1.0 µg/mL
same,MIC,Clostridium difficile [10]; Clostridium difficile 1153,1.0 µg/mL
same,MIC,Clostridium difficile [10]; Clostridium difficile 2634,1.0 µg/mL
same,MIC,Clostridium difficile [10]; Clostridium difficile 3424-5B,1.0 µg/mL
same,MIC,Clostridium difficile [10]; Clostridium difficile 3816,1.0 µg/mL
same,MIC,Clostridium difficile [10]; Clostridium difficile 3950D,1.0 µg/mL
same,MIC,Clostridium difficile [10]; Clostridium difficile 6890,1.0 µg/mL
same,MIC,Clostridium difficile [10]; Clostridium difficile 8484,1.0 µg/mL
same,MIC,Clostridium difficile [10]; Clostridium difficile A-194,1.0 µg/mL
same,MIC,Clostridium difficile [10]; Clostridium difficile A-195,1.0 µg/mL
same,MIC,Clostridium difficile [10]; Clostridium difficile A-196,1.0 µg/mL
same,MIC,Clostridium difficile [10]; Clostridium difficile A-279,1.0 µg/mL
same,MIC,Clostridium difficile [10]; Clostridium difficile A-280,1.0 µg/mL
same,MIC,Clostridium difficile [10]; Clostridium difficile A-281,1.0 µg/mL
same,MIC,Clostridium difficile [10]; Clostridium difficile WAL-2112,1.0 µg/mL
same,MIC,Clostridium difficile [10]; Clostridium difficile WAL-3657,1.0 µg/mL
same,MIC,Clostridium difficile [10]; Clostridium difficile WAL-4268,1.0 µg/mL
same,MIC,Staphylococcus aureus,0.25 µg/mL
same,MIC,[11]; [15],1 µg/mL
same,MIC,Streptococcus pyogenes,0.5 µg/mL
same,MIC,Streptococcus pneumoniae,0.5 µg/mL
same,MIC,[12]; [16],2 µg/mL
same,MIC,[12]; [17],1 µg/mL
same,MIC,"Haemophilus influenzae; Haemophilus influenzae 251, 24 hours",2 µg/mL
same,MIC,"Haemophilus influenzae; Haemophilus influenzae Brun, 24 hours",8 µg/mL
same,in vivo oral activity,S. pyogenes,> 300 mg./kg.×2
same,concentration at which activity in vitro was shown,pseudorabies,20 µg/mL
same,LD50,[13],> 300 mg/kg
same,acute toxicity,[13],> 300 mg/kg
A41030 factor G,solubility (solvents),Solubility in solvents,soluble in the same solvents as is factor A
same,MIC,Clostridium difficile [3],2 µg/mL
same,MIC,Clostridium perfringens,2 µg/mL
same,MIC,Clostridium septicum,2 µg/mL
same,MIC,Eubacterium aerofaciens,2 µg/mL
same,MIC,[14],1.0 µg/mL
same,MIC,Peptococcus prevoti,2 µg/mL
same,MIC,[4],≤ 0.5 µg/mL
same,MIC,[5],2 µg/mL
same,MIC,Propionibacterium acnes [6],1.0 µg/mL
same,MIC,Bacteroides fragilis; Bacteroides fragilis 111,32 µg/mL
same,MIC,Bacteroides fragilis; Bacteroides fragilis 1877,32 µg/mL
same,MIC,Bacteroides fragilis; Bacteroides fragilis 1936B,64 µg/mL
same,MIC,[7],64 µg/mL
same,MIC,[8],64 µg/mL
same,MIC,Bacteroides vulgatis,64 µg/mL
same,MIC,Bacteroides corrodens,32 µg/mL
same,MIC,Fusobacterium symbiosum,2 µg/mL
same,MIC,[9],2 µg/mL
same,MIC,Clostridium difficile [10]; Clostridium difficile 78,1.0 µg/mL
same,MIC,Clostridium difficile [10]; Clostridium difficile 107B,1.0 µg/mL
same,MIC,Clostridium difficile [10]; Clostridium difficile 111F,1.0 µg/mL
same,MIC,Clostridium difficile [10]; Clostridium difficile 1153,1.0 µg/mL
same,MIC,Clostridium difficile [10]; Clostridium difficile 2634,1.0 µg/mL
same,MIC,Clostridium difficile [10]; Clostridium difficile 3424-5B,1.0 µg/mL
same,MIC,Clostridium difficile [10]; Clostridium difficile 3816,1.0 µg/mL
same,MIC,Clostridium difficile [10]; Clostridium difficile 3950D,1.0 µg/mL
same,MIC,Clostridium difficile [10]; Clostridium difficile 6890,1.0 µg/mL
same,MIC,Clostridium difficile [10]; Clostridium difficile 8484,1.0 µg/mL
same,MIC,Clostridium difficile [10]; Clostridium difficile A-194,1.0 µg/mL
same,MIC,Clostridium difficile [10]; Clostridium difficile A-195,1.0 µg/mL
same,MIC,Clostridium difficile [10]; Clostridium difficile A-196,1.0 µg/mL
same,MIC,Clostridium difficile [10]; Clostridium difficile A-279,1.0 µg/mL
same,MIC,Clostridium difficile [10]; Clostridium difficile A-280,1.0 µg/mL
same,MIC,Clostridium difficile [10]; Clostridium difficile A-281,1.0 µg/mL
same,MIC,Clostridium difficile [10]; Clostridium difficile WAL-2112,1.0 µg/mL
same,MIC,Clostridium difficile [10]; Clostridium difficile WAL-3657,1.0 µg/mL
same,MIC,Clostridium difficile [10]; Clostridium difficile WAL-4268,1.0 µg/mL
same,MIC,"[11]; Staphylococcus epidermidis EPI1, 24 hours",0.5 µg/mL
same,MIC,[11]; [15],0.5 µg/mL
same,MIC,Streptococcus pyogenes,2 µg/mL
same,MIC,Streptococcus pneumoniae,2 µg/mL
same,MIC,[12]; [16],4 µg/mL
same,MIC,[12]; [17],4 µg/mL
same,MIC,"Haemophilus influenzae; Haemophilus influenzae 76, 24 hours",32 µg/mL
same,MIC,"Haemophilus influenzae; Haemophilus influenzae C.L., 24 hours",32 µg/mL
same,MIC,Klebsiella pneumoniae,64 µg/mL
